Results on 4 compounds are retold here after BindingDB's records for doi:10.1016/s0960-894x(00)00601-6 (National Cancer Istitute-Frederick Cancer Research and …, 2001).

A short description of experiment [1]: Inhibition of RANTES-induced migration of human embryonic kidney (CCR1/HEK) cell transfectants.
For experiment [2], the target named is T1, C-C chemokine receptor type 1 (Homo sapiens, UniProt P32246).
T1 sequence (P32246 whole entry): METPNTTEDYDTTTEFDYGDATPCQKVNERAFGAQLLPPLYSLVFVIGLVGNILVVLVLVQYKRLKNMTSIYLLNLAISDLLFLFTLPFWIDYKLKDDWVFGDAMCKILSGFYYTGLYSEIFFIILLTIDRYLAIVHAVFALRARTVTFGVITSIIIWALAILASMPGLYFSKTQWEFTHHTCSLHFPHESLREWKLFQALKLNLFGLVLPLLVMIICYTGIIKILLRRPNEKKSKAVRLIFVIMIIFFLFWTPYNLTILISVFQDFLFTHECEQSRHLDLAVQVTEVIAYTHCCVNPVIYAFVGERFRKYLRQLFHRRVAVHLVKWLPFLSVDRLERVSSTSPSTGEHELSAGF
Description: ChEBML_40342. The text has this:
Inhibition of RANTES-induced migration of human embryonic kidney (CCR1/HEK) cell transfectants

In the case of `CC(C)CCCC(C)[C@H]1CC[C@H]2[C@@H]3CCC4C[C@@H](CCC=C(c5cc(Cl)c(O)c(C(=O)O)c5)c5cc(Cl)c(O)c(C(=O)O)c5)CC[C@]4(C)[C@H]3CC[C@]12C` (some centres undefined), the half-maximal inhibitory concentration (IC50) in experiment [1] was 0.26 µM.

In experiment [1], `CC(C)CCCC(C)[C@H]1CC[C@H]2[C@@H]3CCC4C[C@@H](CCC=C(c5cc(Cl)c(O)c(C(=O)NCC(=O)O)c5)c5cc(Cl)c(O)c(C(=O)NCC(=O)O)c5)CC[C@]4(C)[C@H]3CC[C@]12C` (some centres undefined) gave an IC50 of 10 µM.

In experiment [2], `[C][C]([C])[C][C][C][C]([C])[C@H]1[C][C][C@H]2[C@@H]3[C][C][C]4[C][C@@H]([C][C][C]=C(c5cc(Cl)c(O[C]c6ccc(-c7cccc(C([O])=O)c7)cc6)c(C(=O)O)c5)c5cc(Cl)c(O[C]c6ccc(-c7cccc(C([O])=O)c7)cc6)c(C(=O)O)c5)[C][C][C@]4([C])[C@H]3[C][C][C@]12[C]` [5-{1-{3-carboxylato-4-[4-(3-carboxyphenyl)benzyloxy]-5-chlorophenyl}-4-[1-(1,5-dimethylhexyl)-9a,11a-dimethylperhydrocyclopenta[a]phenanthren-7-yl]-1-butenyl}-2-[4-(3-carboxyphenyl)benzyloxy]-3-chlorobenzoate] gave an IC50 of 9.1 µM.

For the compound `[C][C]([C])[C][C][C][C]([C])[C@H]1[C][C][C@H]2[C@@H]3[C][C][C]4[C][C@@H]([C][C][C]=C(c5cc(Cl)c(O[C]c6cccc(B([O])O)c6)c(C(=O)O)c5)c5cc(Cl)c(O[C]c6cccc(B([O])O)c6)c(C(=O)O)c5)[C][C][C@]4([C])[C@H]3[C][C][C@]12[C]` [Cosalane derivative], the half-maximal inhibitory concentration (IC50) in experiment [2] was determined as 4 µM.

The IC50 is the concentration needed to halve the response being measured. A low value points to inhibition by little substance.
